Assay results as given in publication PMC6332200, “Isolation and Identification of Cytotoxic Compounds from Aeschynomene fascicularis, a Mayan Medicinal Plant” (Molecules, 2015).
Several values for one entry are separate records, joined by “and”; a condition that tells them apart may be missing. Identical values can stand only once.

Experiments:
KB [1] = assay: Antiproliferative sulforhodamine B assay, KB; assay type: cell-based, human; conditions: Homo sapiens; KB, SRB, 48 h
Procedure: (§1) Three types of cancer cell lines obtained from the American Type Culture Collection (ATCC) were cultured: two oral-laryngeal cancer cell lines, nasopharynx carcinoma (KB, ATCC-CCL-17) and laryngeal carcinoma (Hep-2, ATCC-CCL-23); two cervix-uterine cancer cell lines, cervix adenocarcinoma (HeLa, ATCC-CCL-2) and cervix squamous carcinoma (SiHa, ATCC-HTB-35); and two prostate cancer cell lines, prostate carcinoma (DU-145, ATCC-HTB-81) and prostate adenocarcinoma (PC-3, ATCC-CRL-1435); along with one normal cell line (MDCK, ATCC-CCL-34). The cells were cultured in sterile Costar T75 flasks containing DMEM (Gibco, Hong Kong, China), supplemented with fetal bovine serum (10%, v/v), 100 U/mL penicillin G, and […] streptomycin at 37 °C in an atmosphere of 5% CO2 (95% humidity). At 70%–80% confluence, cells were detached from the cultured flask by treatment with 0.05% trypsin-EDTA (Gibco), and a suspension of 5 × 10^4 cells/mL of viable cells was seeded in a 96-well microtiter plate (Costar, Washington, DC, USA) and incubated.
(§2) The growth inhibition of cancer cells was evaluated by the sulforhodamine B method. When cells reached 70% confluence in a microtiter plate, the medium was replaced with DMEM 5% FBS and samples at various concentrations. After 48 h, the medium was discarded, and cells were fixed by adding 50 μL of 10% trichloroacetic acid (TCA, Sigma-Aldrich Chemical, St. Louis, MO, USA). The cells were then incubated at 4 °C for 30 min; TCA was drained off, and the plates were left to dry. Then, 50 μL of SRB stain (10 mg of 1% acetic acid, Sigma) were added to each well for 30 min. Finally, the plates were washed four times with 1% acetic acid (100 μL). The OD was measured at 540 nm using an ELISA reader (Bio-Rad). Docetaxel was used as a positive control, whereas cells incubated only with 0.05% of DMSO were used as a negative control. All determinations were performed in triplicate.
(§3) The cytotoxic and antiproliferative activities of tested compounds were calculated as the percentage of cells killed or the percentage of inhibition of cell proliferation, respectively, using the equation: growth inhibition (%) = (ODcontrol − ODsample/ODcontrol) × 100. […] In addition, the level of cytotoxicity on normal cells was evaluated by determining the selectivity index (SI) of each compound, which is calculated as the ratio of cytotoxicity or reduced cell growth on normal cells to cancer cells (SI = normal cells/cancer cells). It is generally considered that biological efficacy is not due to general toxicity when SI ≥ 10 [17].

[2] = Cytotoxicity MTT assay, Hep-2 laryngeal carcinoma; assay type: cell-based, human; conditions: dog MDCK normal cells versus Hep-2 laryngeal carcinoma cells; CC50 MDCK normal cells / Hep-2; read-out: Selectivity index (SI) of cytotoxic activity
Procedure: (§4) Three types of cancer cell lines obtained from the American Type Culture Collection (ATCC) were cultured: two oral-laryngeal cancer cell lines, nasopharynx carcinoma (KB, ATCC-CCL-17) and laryngeal carcinoma (Hep-2, ATCC-CCL-23); two cervix-uterine cancer cell lines, cervix adenocarcinoma (HeLa, ATCC-CCL-2) and cervix squamous carcinoma (SiHa, ATCC-HTB-35); and two prostate cancer cell lines, prostate carcinoma (DU-145, ATCC-HTB-81) and prostate adenocarcinoma (PC-3, ATCC-CRL-1435); along with one normal cell line (MDCK, ATCC-CCL-34). The cells were cultured in sterile Costar T75 flasks containing DMEM (Gibco, Hong Kong, China), supplemented with fetal bovine serum (10%, v/v), 100 U/mL penicillin G, and […] streptomycin at 37 °C in an atmosphere of 5% CO2 (95% humidity). At 70%–80% confluence, cells were detached from the cultured flask by treatment with 0.05% trypsin-EDTA (Gibco), and a suspension of 5 × 10^4 cells/mL of viable cells was seeded in a 96-well microtiter plate (Costar, Washington, DC, USA) and incubated. Cytotoxicity was assessed by the MTT assay as previously described by Rahman. When cells reached 90% confluence in a microtiter plate, the DMEM was replaced with fresh medium and cells were incubated with compounds at various concentrations. […] The medium was aspirated, and the formazan product was solubilized with acidified isopropanol (0.4 N HCl). The amount of MTT-formazan is directly proportional to the number of living cells and was determined by measuring the optical density (OD) at 590 nm using a bioassay reader (Bio-Rad). All determinations were performed in triplicate. The cytotoxic and antiproliferative activities of tested compounds were calculated as the percentage of cells killed or the percentage of inhibition of cell proliferation, respectively, using the equation: growth inhibition (%) = (ODcontrol − ODsample/ODcontrol) × 100. […] In addition, the level of cytotoxicity on normal cells was evaluated by determining the selectivity index (SI) of each compound, which is calculated as the ratio of cytotoxicity or reduced cell growth on normal cells to cancer cells (SI = normal cells/cancer cells).

Hep-2 [3] = assay: Cytotoxicity MTT assay, Hep-2 laryngeal carcinoma; assay type: cell-based, human; conditions: Homo sapiens; Hep-2, MTT, 72 h; read-out: Cytotoxic activity CC50
Procedure: as §4

DU-145 [4] = assay: Antiproliferative sulforhodamine B assay, DU-145; assay type: cell-based, human
Procedure: as §1, §2, §3

Hep-2 [5] = assay: Antiproliferative sulforhodamine B assay, Hep-2; assay type: cell-based, human; conditions: Homo sapiens; Hep-2, SRB, 48 h
Procedure: as §1, §2, §3

HeLa [6] = assay: Antiproliferative sulforhodamine B assay, HeLa; assay type: cell-based, human; conditions: Homo sapiens; HeLa, SRB, 48 h
Procedure: as §1, §2, §3

MDCK = assay: Antiproliferative sulforhodamine B assay, MDCK normal cell line; assay type: cell-based; conditions: Canis lupus familiaris, SRB, 48 h
Procedure: as §1, §2, §3

[7] = Cytotoxicity MTT assay, KB nasopharynx carcinoma; assay type: cell-based, human; conditions: human, MDCK normal cells versus KB nasopharynx carcinoma cells; CC50 MDCK normal cells / KB; read-out: Selectivity index (SI) of cytotoxic activity
Procedure: as §4

KB [8] = assay: Cytotoxicity MTT assay, KB nasopharynx carcinoma; assay type: cell-based, human; conditions: Homo sapiens; KB, MTT, 72 h; read-out: Cytotoxic activity CC50
Procedure: as §4

Trypanosoma cruzi = tested on: Trypanosoma cruzi; parameters: method as in PMID 17291734; conditions: cited from earlier work
SiHa [9] = assay: Antiproliferative sulforhodamine B assay, SiHa; assay type: cell-based, human; conditions: Homo sapiens; SiHa, SRB, 48 h
Procedure: as §1, §2, §3

SiHa [10] = assay: Cytotoxicity MTT assay, SiHa cervix squamous carcinoma; assay type: cell-based, human; conditions: Homo sapiens; SiHa, MTT, 72 h; read-out: Cytotoxic activity CC50
Procedure: as §4

DU-145 [11] = assay: Cytotoxicity MTT assay, DU-145 prostate carcinoma; assay type: cell-based, human; conditions: Homo sapiens; DU-145, MTT, 72 h; read-out: Cytotoxic activity CC50
Procedure: as §4

[12] = Cytotoxicity MTT assay, DU-145 prostate carcinoma; assay type: cell-based, human; conditions: human, MDCK normal cells versus DU-145 prostate carcinoma cells; CC50 MDCK normal cells / DU-145; read-out: Selectivity index (SI) of cytotoxic activity
Procedure: as §4

[13] = Cytotoxicity MTT assay, MDCK normal cell line; assay type: cell-based; conditions: dog, MDCK cells (normal cell line), read-out: Cytotoxic activity CC50
Procedure: as §4

HeLa [14] = assay: Cytotoxicity MTT assay, HeLa cervix adenocarcinoma; assay type: cell-based, human; conditions: Homo sapiens; HeLa, MTT, 72 h; read-out: Cytotoxic activity CC50
Procedure: as §4

PC-3 [15] = assay: Antiproliferative sulforhodamine B assay, PC-3; assay type: cell-based; conditions: Homo sapiens; PC-3, SRB, 48 h
Procedure: as §1, §2, §3

[16] = Cytotoxicity MTT assay, PC-3 prostate adenocarcinoma; assay type: cell-based, human; conditions: human, MDCK normal cells versus PC-3 prostate adenocarcinoma cells; CC50 MDCK normal cells / PC-3; read-out: Selectivity index (SI) of cytotoxic activity
Procedure: as §4

PC-3 [17] = assay: as above; assay type: cell-based, human; conditions: Homo sapiens; PC-3, MTT, 72 h; read-out: Cytotoxic activity CC50
Procedure: as §4

Leishmania mexicana = tested on: Leishmania mexicana; parameters: method as in PMID 17291734; conditions: cited from earlier work

For `CC(C)=CCc1c(O)ccc(C(=O)/C=C/c2ccccc2)c1O` [Compound 3, isocordoin], the IC50 (KB [1]) was greater than 100 µM, the selectivity ratio at 72 h [2] was 0.7 and the CC50 (Hep-2 [3]) was 6.1 µg/mL and 20 µM. For the same molecule, the IC50 (DU-145 [4]; Homo sapiens, DU-145, SRB, 48 h) was 13.3 µg/mL and 43.8 µM, the “Selectivity index (SI) of antiproliferative activity” value (DU-145 [4]; IC50 MDCK normal cells / DU-145) was 1.4 and the IC50 (Hep-2 [5]) was greater than 100 µM. For the same molecule, the IC50 (HeLa [6]) was greater than 100 µM, the IC50 (MDCK) was 18.4 µg/mL and 60.8 µM and the selectivity ratio at 72 h [7] was 0.5. For the same molecule, the CC50 (KB [8]) was 11 µg/mL and 27 µM, the “Activity against the parasite Trypanosoma cruzi” value (Trypanosoma cruzi) was “active” and the IC50 (SiHa [9]) was greater than 100 µM. The CC50 (SiHa [10]) was greater than 100 µg/mL, the CC50 (DU-145 [11]) was 7 µg/mL and 23.1 µM and the selectivity ratio at 72 h [12] was 0.6. The CC50 at 72 h [13] was 4.2 µg/mL and 14 µM, the CC50 (HeLa [14]) was greater than 100 µg/mL and the IC50 (PC-3 [15]) was greater than 100 µM. The selectivity ratio at 72 h [16] was 0.23, the CC50 (PC-3 [17]) was 18.4 µg/mL and 60.3 µM and the “Activity against the parasite Leishmania mexicana” value (Leishmania mexicana) was “active”.
